Tests used:
[1] = system: human epithelioid mesothelioma MM473-Luc; assay: In vivo antitumor activity, orthotopic MM473-Luc xenograft; details: i.v. 45 mg/kg, q4dx3w, treatment from day 15
RAJI = assay: Cytotoxicity assay (MTT, 72 h) RAJI; type: cell-based; details: Homo sapiens, read-out: IC50 ± SD RAJI
MM288 = assay: Cytotoxicity assay, primary mesothelioma MM288; type: cell-based, Human; details: Homo sapiens; epithelioid, 72 h, SBR assay; read-out: IC50 ± SD MM288
HDAC6 = HDAC6 (Homo sapiens, UniProt Q9UBN7); assay: HDAC profiling HDAC6; type: biochemical; details: purified isoform, 10 concentrations from 10 μM, triplicate
U-2932 = assay: Cytotoxicity assay (MTT, 72 h) U-2932; type: cell-based, Human; details: Homo sapiens, U2932, read-out: IC50 ± SD U-2932
MV4-11 = assay: Cytotoxicity assay (MTT, 72 h) MV4-11; type: cell-based; details: Homo sapiens, read-out: IC50 ± SD MV4-11
HT29 = assay: Cytotoxicity assay (SRB, 72 h) HT29; type: cell-based, Human; details: Homo sapiens, HT-29, read-out: IC50 ± SD HT29
MM473 = assay: Cytotoxicity assay, primary mesothelioma MM473; type: cell-based, Human; details: Homo sapiens, MM473; epithelioid, 72 h, SBR assay; read-out: IC50 ± SD MM473
MINO = assay: Cytotoxicity assay (MTT, 72 h) MINO; type: cell-based, Human; details: Homo sapiens, MINO; 72 h, MTT assay; read-out: IC50 ± SD MINO
MM317 = assay: Cytotoxicity assay, primary mesothelioma MM317; type: cell-based, Human; details: Homo sapiens; epithelioid, 72 h, SBR assay; read-out: IC50 ± SD MM317
K 562 = assay: Cytotoxicity assay (MTT, 72 h) K 562; type: cell-based; details: Homo sapiens, K562, read-out: IC50 ± SD K 562
[2] = system: hematologic cancer cell lines; assay: Screening on hematologic cancer cell lines (summary); type: cell-based; details: Homo sapiens, read-out: IC50 across hematologic cancer cell lines (Tables 5 and 6); span over the cell line panel, 72 h, MTT assay
MAVER-2 = assay: Cytotoxicity assay (MTT, 72 h) MAVER-2; type: cell-based, Human; details: Homo sapiens, read-out: IC50 ± SD MAVER-2
Z-138 = assay: Cytotoxicity assay (MTT, 72 h) Z-138; type: cell-based; details: Homo sapiens, read-out: IC50 ± SD Z-138
H2A.X = assay: Western blot, H2A.X induction in NCI-H460 cells; type: cell-based, Human; details: 24 h; SAHA 5 μM, SN38 0.05 μM, 3d 0.125–0.2–0.5 μM
Protocol: (§1) The supernatant, containing the total proteins extracts, were transferred in new vials. The protein concentration was measured by Bradford Protein Assay. Equal amounts of proteins for each sample were then resolved by SDS-PAGE and loaded on 10–12% polyacrilamide gels. The proteins were then transferred on nitrocellulose membranes. Molecular weights were estimated based upon the relative migration with molecular weight protein markers.
(§2) The non-specific binding was blocked by incubation of membranes in TBS-tween (25 mM Tris, 150 mM NaCl, 0.1% Tween 20) with 5% nonfat dry milk (BIORAD, Milan) for 60 minutes. Subsequently, the membrane was incubated overnight with primary antibodies: anti-Histone H4 (Millipore, 1:500), anti-acetyl-H4 (Santa Cruz, 1:1000) anti-p21 (Santa Cruz, 1:1000), anti-acetyl-tubulin (abcam, 1:1000), anti-α-tubulin (Sigma, 1:5000), anti β-actin (Sigma, 1:5000) and anti-Topoisomerase 1 (Santa Cruz, 1:500). After three washes with TBST blots were incubated with HRP-coniugated secondary anti-mouse and anti-rabbit (Santa Cruz, 1:5000) 1 hour at room temperature. After three washes with TBST the blots were developed with ECL substrate (GE Healthcare) and chemiluminescence detected by ChemiDoc Imaging System (Biorad). The optical density of the protein bands detected by western blotting was normalized on α -tubulin levels and analyzed by ChemiDoc software (Biorad).
Cells were lysed in 0.5% NP-40 and 40 μg of total proteins were loaded on NuPAGE 4–12% (Invitrogen), transferred to a nitrocellulose paper and probed with specific antibodies.

A2780-Dx = assay: Cytotoxicity assay (SRB, 72 h) A2780-Dx; type: cell-based, Human
Acetylated Tubulin = assay: Western blot, acetylation of tubulin in NCI-H460 cells; type: cell-based, Human; details: 24 h; SN38 0.05 μM, SAHA 5 μM, 3b and 3d 0.125–0.2–0.5 μM
Protocol: as §1
as §2, with “software (Biorad). […]” for “software (Biorad).”

REC-1 = assay: Cytotoxicity assay (MTT, 72 h) REC-1; type: cell-based; details: Homo sapiens, Rec1, read-out: IC50 ± SD REC-1
Capan 1 = assay: Cytotoxicity assay (SRB, 72 h) Capan 1; type: cell-based, Human; details: Homo sapiens, CAPAN-1, read-out: IC50 ± SD Capan 1
ARH-77 = assay: Cytotoxicity assay (MTT, 72 h) ARH-77; type: cell-based; details: Homo sapiens, read-out: IC50 ± SD ARH-77
p21 = assay: Western blot, p21 in NCI-H460 cells; type: cell-based, Human; details: 24 h; SAHA 5 μM, SN38 0.05 μM, 3d 0.125–0.2–0.5 μM
Protocol: as §1
as §2, with “software (Biorad). […]” for “software (Biorad).”

OCI-LY3 = assay: Cytotoxicity assay (MTT, 72 h) OCI-LY3; type: cell-based, Human; details: Homo sapiens, OCI-Ly3; 72 h, MTT assay; read-out: IC50 ± SD OCI-LY3
Protocol: Human tumor cells were seeded in 96-well cell culture plastic plates, allowed to attach, and exposed to scalar concentrations of the test compounds.

NCI-H460 = assay: Cytotoxicity assay (SRB, 72 h) NCI-H460; type: cell-based, Human; details: Homo sapiens, NCI-H460; 72 h, SRB assay; read-out: IC50 ± SD NCI-H460
[3] = system: series of human tumor cell lines; assay: Antiproliferative activity, series of human tumor cell lines (summary); type: cell-based; details: span over the cell line panel, 72 h, SRB assay, read-out: IC50 across the human tumor cell lines of Table 3
[4] = mouse, in vivo, iv, 45 mg/kg
HeLa = assay: Cytotoxicity assay (SRB, 72 h) HeLa; type: cell-based, Human; details: Homo sapiens, HeLa, read-out: IC50 ± SD HeLa

Chain of HDAC6 (Q9UBN7 whole entry, canonical isoform): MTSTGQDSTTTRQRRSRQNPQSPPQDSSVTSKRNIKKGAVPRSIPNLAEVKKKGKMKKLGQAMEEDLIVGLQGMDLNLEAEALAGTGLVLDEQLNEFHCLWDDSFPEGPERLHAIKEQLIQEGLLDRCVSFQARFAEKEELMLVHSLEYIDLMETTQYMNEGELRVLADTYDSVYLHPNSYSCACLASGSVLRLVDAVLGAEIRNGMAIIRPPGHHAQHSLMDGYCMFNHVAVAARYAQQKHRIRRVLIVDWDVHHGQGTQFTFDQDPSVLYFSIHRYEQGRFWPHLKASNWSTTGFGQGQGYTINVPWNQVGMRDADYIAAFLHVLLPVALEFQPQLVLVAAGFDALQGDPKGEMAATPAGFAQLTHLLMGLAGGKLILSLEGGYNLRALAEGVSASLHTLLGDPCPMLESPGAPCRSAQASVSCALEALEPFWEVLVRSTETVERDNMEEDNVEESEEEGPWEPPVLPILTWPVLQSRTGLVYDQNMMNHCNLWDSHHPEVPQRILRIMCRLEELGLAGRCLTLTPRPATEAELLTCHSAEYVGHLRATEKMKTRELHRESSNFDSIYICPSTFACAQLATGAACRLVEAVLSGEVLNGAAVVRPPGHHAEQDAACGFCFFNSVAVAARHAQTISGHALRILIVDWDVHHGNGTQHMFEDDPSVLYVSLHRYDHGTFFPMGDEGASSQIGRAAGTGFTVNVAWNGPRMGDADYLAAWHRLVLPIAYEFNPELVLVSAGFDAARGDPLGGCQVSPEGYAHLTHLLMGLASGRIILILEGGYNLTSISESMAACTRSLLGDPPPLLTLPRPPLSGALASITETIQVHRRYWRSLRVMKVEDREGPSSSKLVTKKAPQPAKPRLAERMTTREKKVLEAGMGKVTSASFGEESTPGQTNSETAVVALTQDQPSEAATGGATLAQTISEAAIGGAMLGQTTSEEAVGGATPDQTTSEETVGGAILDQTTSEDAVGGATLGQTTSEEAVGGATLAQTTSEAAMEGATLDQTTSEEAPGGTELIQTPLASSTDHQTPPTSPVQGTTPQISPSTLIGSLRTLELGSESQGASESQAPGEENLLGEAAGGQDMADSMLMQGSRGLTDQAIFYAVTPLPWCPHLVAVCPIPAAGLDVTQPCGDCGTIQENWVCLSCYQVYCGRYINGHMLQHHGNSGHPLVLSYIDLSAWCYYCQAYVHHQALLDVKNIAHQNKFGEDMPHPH

With `CC[C@@]1(O)C(=O)OCc2c1cc1n(c2=O)Cc2c-1nc1ccc(O)cc1c2C=NOCCCCCC(=O)NO` [Compound 3d, 6-(10-hydroxycamptothecin-7-ylmethyleneaminooxy)-hexanoic acid hydroxyamide] the “antitumor activity (BLI signal, average radiance)” value [1] was “strong antitumor activity”, the IC50 (RAJI) was 77 ± 20 nM and the IC50 (MM288) was 480 ± 100 nM. It also gave an IC50 (HDAC6) of 1.56 nM, an IC50 (U-2932) of 44 ± 10 nM and an IC50 (MV4-11) of 2730 ± 300 nM. It also gave an IC50 (HT29) of 390 ± 100 nM, an IC50 (MM473) of 2100 ± 500 nM and an IC50 (MINO) of 31 ± 10 nM. For the same compound, the IC50 (MM317) was 850 ± 200 nM, the IC50 (K 562) was 940 ± 200 nM and the IC50 [2] was 6 to 4000 nM. The IC50 (MAVER-2) was 12 ± 1 nM, the IC50 (Z-138) was 6 ± 1 nM and the “H2A.X induction (DNA damage)” value (H2A.X) was “DNA damage at a dose corresponding to its IC80, confirmed by H2A.X induction”. For the same compound, the “RI (Resistance Index)” value (A2780-Dx; A2780-Dx versus A2780) was 6.6, the IC50 (A2780-Dx; Homo sapiens, A2780/DX, 72 h, SRB assay, multidrug-resistant ovarian carcinoma, read-out: IC50 ± SD A2780-Dx) was 1800 ± 400 nM and the “accumulation of acetylated tubulin” value (Acetylated Tubulin) was “H4 and tubulin acetylation in a dose dependent manner”. The IC50 (REC-1) was 180 ± 40 nM, the IC50 (Capan 1) was 35 ± 2 nM and the IC50 (ARH-77) was 210 ± 60 nM. The “expression of p21” value (p21) was “activated the expression of p21”, the IC50 (OCI-LY3) was 18 ± 5 nM and the IC50 (NCI-H460) was 270 ± 20 nM. The IC50 [3] was 30 to 400 nM, the body weight [4] was “no reduction in body weight was observed” and the IC50 (HeLa) was 180 ± 50 nM.

— PMC6177136, “Hybrid topoisomerase I and HDAC inhibitors as dual action anticancer agents” (PLoS ONE, 2018)
